Assay results as given in patent USRE32311E.
Values after ≈ are worked out from the molar mass of the structure shown.

How the values were obtained:
[1] = system: Streptococcus Group D 9960; test: agar-dilution MIC; assay type: cell-based
[2] = system: Streptococcus Group D X66; test: agar-dilution MIC; assay type: cell-based
Protocol: (§1) In Table VII activity is measured by the minimal inhibitory concentration (MIC), i.e. the lowest concentration of compound at which growth of the microorganism is inhibited by the test compound.

[3] = system: Staphylococcus epidermidis EP11; test: agar-dilution MIC; assay type: cell-based
Protocol: as §1

Streptococcus pyogenes = test: experimental bacterial infection in mice, ED50; assay type: in vivo; details: two doses
[4] = system: Staphylococcus aureus X1.1; test: agar-dilution MIC; assay type: cell-based
[5] = system: Staphylococcus epidermidis EP12; test: agar-dilution MIC; assay type: cell-based
Protocol: as §1

[6] = system: Staphylococcus aureus X400; test: agar-dilution MIC; assay type: cell-based; details: Staphylococcus aureus X400, methicillin-resistant strain
Protocol: as §1

toxicity, LD50 in mice = assay type: in vivo; details: administered intravenously
[7] = system: Staphylococcus aureus V41; test: agar-dilution MIC; assay type: cell-based; details: Staphylococcus aureus V41, penicillin-resistant strain
Protocol: as §1

[8] = system: Streptococcus pyogenes C203; test: agar-dilution MIC; assay type: cell-based
Protocol: as §1

[9] = system: Streptococcus pneumoniae Park I; assay type: cell-based; details: agar dilution
Protocol: as §1

Staphylococcus aureus = test: experimental bacterial infection in mice, ED50; assay type: in vivo; details: two doses

SMILES	MIC [1] [µg/mL]	MIC [2] [µg/mL]	MIC [3] [µg/mL]	ED50 Streptococcus pyogenes Oral (Streptococcus pyogenes) [mg/kg × 2]	MIC [4] [µg/mL]	MIC [5] [µg/mL]	MIC [6] [µg/mL]	LD50 in Mice (toxicity, LD50 in mice) [mg/kg]	MIC [7] [µg/mL]	MIC [8] [µg/mL]	MIC [9] [µg/mL]	ED50 Streptococcus pyogenes Subcutaneous (Streptococcus pyogenes) [mg/kg × 2]	ED50 Staphylococcus aureus Subcutaneous (Staphylococcus aureus) [mg/kg × 2]
CCCCCCCCCCCC(=O)N[C@H](Cc1ccccc1)C(=O)N[C@@H](Cc1c[nH]c2ccccc12)C(=O)N[C@H](CC(N)=O)C(=O)N[C@@H](CC(=O)O)C(=O)N[C@@H]1C(=O)NCC(=O)N[C@@H](CCCN)C(=O)N[C@@H](CC(=O)O)C(=O)N[C@H](C)C(=O)N[C@@H](CC(=O)O)C(=O)NCC(=O)N[C@H](CO)C(=O)N[C@@H]([C@H](C)CC(=O)O)C(=O)N[C@@H](CC(=O)c2ccccc2N)C(=O)O[C@@H]1C [Compound 1]	0.5 (≈ 0.278 µM)	1 (≈ 0.557 µM)	2 (≈ 1.11 µM)	> 200	0.5 (≈ 0.278 µM)	1 (≈ 0.557 µM)	1 (≈ 0.557 µM)	250	0.5 (≈ 0.278 µM)				
CCCCCCCCCCCC(=O)NCCCCC(=O)N[C@@H](Cc1c[nH]c2ccccc12)C(=O)N[C@H](CC(N)=O)C(=O)N[C@@H](CC(=O)O)C(=O)N[C@@H]1C(=O)NCC(=O)N[C@@H](CCCN)C(=O)N[C@@H](CC(=O)O)C(=O)N[C@H](C)C(=O)N[C@@H](CC(=O)O)C(=O)NCC(=O)N[C@H](CO)C(=O)N[C@@H]([C@H](C)CC(=O)O)C(=O)N[C@@H](CC(=O)c2ccccc2N)C(=O)O[C@@H]1C [Compound 2]	8 (≈ 4.58 µM)	32 (≈ 18.3 µM)	4 (≈ 2.29 µM)	117	4 (≈ 2.29 µM)	2 (≈ 1.14 µM)	4 (≈ 2.29 µM)	> 600	4 (≈ 2.29 µM)	1 (≈ 0.572 µM)	4 (≈ 2.29 µM)		
CCCCCCCCCCCC(=O)NCCCCCCCCCCC(=O)N[C@@H](Cc1c[nH]c2ccccc12)C(=O)N[C@H](CC(N)=O)C(=O)N[C@@H](CC(=O)O)C(=O)N[C@@H]1C(=O)NCC(=O)N[C@@H](CCCN)C(=O)N[C@@H](CC(=O)O)C(=O)N[C@H](C)C(=O)N[C@@H](CC(=O)O)C(=O)NCC(=O)N[C@H](CO)C(=O)N[C@@H]([C@H](C)CC(=O)O)C(=O)N[C@@H](CC(=O)c2ccccc2N)C(=O)O[C@@H]1C [Compound 3]	8 (≈ 4.37 µM)	8 (≈ 4.37 µM)	8 (≈ 4.37 µM)	> 200	2 (≈ 1.09 µM)	8 (≈ 4.37 µM)	8 (≈ 4.37 µM)	600	2 (≈ 1.09 µM)	2 (≈ 1.09 µM)	0.5 (≈ 0.273 µM)	6.2	> 18
CCCCCCCCCCCC(=O)Nc1ccc(C(=O)N[C@@H](Cc2c[nH]c3ccccc23)C(=O)N[C@H](CC(N)=O)C(=O)N[C@@H](CC(=O)O)C(=O)N[C@@H]2C(=O)NCC(=O)N[C@@H](CCCN)C(=O)N[C@@H](CC(=O)O)C(=O)N[C@H](C)C(=O)N[C@@H](CC(=O)O)C(=O)NCC(=O)N[C@H](CO)C(=O)N[C@@H]([C@H](C)CC(=O)O)C(=O)N[C@@H](CC(=O)c3ccccc3N)C(=O)O[C@@H]2C)cc1 [Compound 4]				> 200	4 (≈ 2.26 µM)		8 (≈ 4.53 µM)	> 300				18.8	< 5
CCCCCCCCCC(=O)N[C@@H](Cc1c[nH]c2ccccc12)C(=O)N[C@@H](CC(N)=O)C(=O)N[C@@H](CC(=O)O)C(=O)N[C@@H]1C(=O)NCC(=O)N[C@@H](CCCN)C(=O)N[C@@H](CC(=O)O)C(=O)N[C@H](C)C(=O)N[C@@H](CC(=O)O)C(=O)NCC(=O)N[C@H](CO)C(=O)N[C@@H]([C@H](C)CC(=O)O)C(=O)N[C@@H](CC(=O)c2ccccc2N)C(=O)O[C@@H]1C [Compound 6]	2 (≈ 1.23 µM)	16 (≈ 9.87 µM)	2 (≈ 1.23 µM)		1 (≈ 0.617 µM)	2 (≈ 1.23 µM)	4 (≈ 2.47 µM)		2 (≈ 1.23 µM)	0.5 (≈ 0.309 µM)	2 (≈ 1.23 µM)		
CCCCCCCCCCCCCCCC(=O)N[C@@H](Cc1c[nH]c2ccccc12)C(=O)N[C@@H](CC(N)=O)C(=O)N[C@@H](CC(=O)O)C(=O)N[C@@H]1C(=O)NCC(=O)N[C@@H](CCCN)C(=O)N[C@@H](CC(=O)O)C(=O)N[C@H](C)C(=O)N[C@@H](CC(=O)O)C(=O)NCC(=O)N[C@H](CO)C(=O)N[C@@H]([C@H](C)CC(=O)O)C(=O)N[C@@H](CC(=O)c2ccccc2N)C(=O)O[C@@H]1C [Compound 10]	2.1 (≈ 1.23 µM)		2.1 (≈ 1.23 µM)					450		0.06 (≈ 0.0352 µM)	0.25 (≈ 0.147 µM)	0.69	
CCCCCCCCC(=O)N[C@@H](Cc1ccccc1)C(=O)N[C@@H](Cc1c[nH]c2ccccc12)C(=O)N[C@H](CC(N)=O)C(=O)N[C@@H](CC(=O)O)C(=O)N[C@@H]1C(=O)NCC(=O)N[C@@H](CCCN)C(=O)N[C@@H](CC(=O)O)C(=O)N[C@H](C)C(=O)N[C@@H](CC(=O)O)C(=O)NCC(=O)N[C@H](CO)C(=O)N[C@@H]([C@H](C)CC(=O)O)C(=O)N[C@@H](CC(=O)c2ccccc2N)C(=O)O[C@@H]1C [Compound 18]	8 (≈ 4.56 µM)	32 (≈ 18.2 µM)	4 (≈ 2.28 µM)	184	2 (≈ 1.14 µM)	2 (≈ 1.14 µM)	4 (≈ 2.28 µM)	> 600	2 (≈ 1.14 µM)	0.5 (≈ 0.285 µM)		0.59	1.38
CCCCCCCCCC(=O)N[C@@H](Cc1ccccc1)C(=O)N[C@@H](Cc1c[nH]c2ccccc12)C(=O)N[C@H](CC(N)=O)C(=O)N[C@@H](CC(=O)O)C(=O)N[C@@H]1C(=O)NCC(=O)N[C@@H](CCCN)C(=O)N[C@@H](CC(=O)O)C(=O)N[C@H](C)C(=O)N[C@@H](CC(=O)O)C(=O)NCC(=O)N[C@H](CO)C(=O)N[C@@H]([C@H](C)CC(=O)O)C(=O)N[C@@H](CC(=O)c2ccccc2N)C(=O)O[C@@H]1C [Compound 19, NTrp-[N-(n-Decanoyl)-L-phenylalanyl]-A-21978C Nucleus]	2 (≈ 1.13 µM)	8 (≈ 4.53 µM)	1 (≈ 0.566 µM)	> 200	0.5 (≈ 0.283 µM)	0.5 (≈ 0.283 µM)	1 (≈ 0.566 µM)	600	0.5 (≈ 0.283 µM)	0.25 (≈ 0.141 µM)	0.75 (≈ 0.424 µM)	0.39	
CCCCCCCCCCC(=O)N[C@@H](Cc1ccccc1)C(=O)N[C@@H](Cc1c[nH]c2ccccc12)C(=O)N[C@H](CC(N)=O)C(=O)N[C@@H](CC(=O)O)C(=O)N[C@@H]1C(=O)NCC(=O)N[C@@H](CCCN)C(=O)N[C@@H](CC(=O)O)C(=O)N[C@H](C)C(=O)N[C@@H](CC(=O)O)C(=O)NCC(=O)N[C@H](CO)C(=O)N[C@@H]([C@H](C)CC(=O)O)C(=O)N[C@@H](CC(=O)c2ccccc2N)C(=O)O[C@@H]1C [Compound 20]	2 (≈ 1.12 µM)	4 (≈ 2.24 µM)	2 (≈ 1.12 µM)	> 200	0.5 (≈ 0.281 µM)	2 (≈ 1.12 µM)	2 (≈ 1.12 µM)	400	0.5 (≈ 0.281 µM)			0.35	1.25
CCCCCCCCCCCCC(=O)N[C@@H](Cc1ccccc1)C(=O)N[C@@H](Cc1c[nH]c2ccccc12)C(=O)N[C@H](CC(N)=O)C(=O)N[C@@H](CC(=O)O)C(=O)N[C@@H]1C(=O)NCC(=O)N[C@@H](CCCN)C(=O)N[C@@H](CC(=O)O)C(=O)N[C@H](C)C(=O)N[C@@H](CC(=O)O)C(=O)NCC(=O)N[C@H](CO)C(=O)N[C@@H]([C@H](C)CC(=O)O)C(=O)N[C@@H](CC(=O)c2ccccc2N)C(=O)O[C@@H]1C [Compound 21]	0.25 (≈ 0.138 µM)	1 (≈ 0.553 µM)	2 (≈ 1.11 µM)	> 200	0.5 (≈ 0.276 µM)	2 (≈ 1.11 µM)	2 (≈ 1.11 µM)		0.5 (≈ 0.276 µM)			0.14	0.76
CCCCCCCCCCC(=O)N[C@@H](Cc1ccccc1)C(=O)NCCC[C@@H]1NC(=O)CNC(=O)[C@@H](NC(=O)[C@H](CC(=O)O)NC(=O)[C@@H](CC(N)=O)NC(=O)[C@@H](N)Cc2c[nH]c3ccccc23)[C@@H](C)OC(=O)[C@H](CC(=O)c2ccccc2N)NC(=O)[C@H]([C@H](C)CC(=O)O)NC(=O)[C@@H](CO)NC(=O)CNC(=O)[C@H](CC(=O)O)NC(=O)[C@@H](C)NC(=O)[C@H](CC(=O)O)NC1=O [Compound 26]	32 (≈ 18 µM)			> 200	8 (≈ 4.49 µM)					1 (≈ 0.561 µM)		> 18	9.2
CCCCCC(=O)N[C@@H](Cc1c[nH]c2ccccc12)C(=O)NCCC[C@@H]1NC(=O)CNC(=O)[C@@H](NC(=O)[C@H](CC(=O)O)NC(=O)[C@@H](CC(N)=O)NC(=O)[C@H](Cc2c[nH]c3ccccc23)NC(=O)CCCCCCCCC(C)CC)[C@@H](C)OC(=O)[C@H](CC(=O)c2ccccc2N)NC(=O)[C@H]([C@H](C)CC(=O)O)NC(=O)[C@@H](CO)NC(=O)CNC(=O)[C@H](CC(=O)O)NC(=O)[C@@H](C)NC(=O)[C@H](CC(=O)O)NC1=O (some centres unmarked) [Compound 29]	32 (≈ 16.4 µM)	8 (≈ 4.11 µM)		> 200			1 (≈ 0.514 µM)	37.5					
